SMILES strings stand for the structures. Marks after values point to notes of the source that are not given here.

The record followed here is patent publication US20070197654A1, “COMBINATION OF A CB1 RECEPTOR ANTAGONIST AND OF A PRODUCT WHICH ACTIVATES DOPAMINERGIC NEUROTRANSMISSION IN THE BRAIN, THE PHARMACEUTICAL COMPOSITIONS COMPRISING THEM AND THEIR USE IN THE TREATMENT OF PARKINSON'S DISEASE” (AVENTIS PHARMA S.A., priority 2001, published 2007).

What all share (assay type): in vivo
For assay [1], the system named is Reserpine-treated rats. The experiment in a line: Reserpine-induced akinesia in the rat: locomotor activity, CB1 antagonist ip combined with quinpirole. The note with it: CB1 antagonist 1 mg/kg i.p., locomotion recorded 1 hour. The procedure: (§1) The synergistic effect of the combination of one or more products which activate dopaminergic neurotransmission in the brain and of one or more CB1 antagonists in the treatment of Parkinson's disease was determined in a model of akinesia induced by reserpine in the rat according to the following protocol:
(§2) Male Sprague-Dawley rats were treated with reserpine administered subcutaneously at a dose of 3 mg/kg (1 ml/kg) in order to induce akinesia in the animal. 18 hours after this treatment, the locomotor activity of these animals was measured and recorded using an automatic system (Videotrack, France). The locomotion, expressed in centimeters, is estimated by a mean overall distance covered during this period (n=11-38 rats per group). The statistical analysis is carried out by variance analysis and a post-hoc comparison (if appropriate) using a Mann-Whitney or Dunnett test. A significant effect is recorded for p<0.05.
(§3) The results for the ip administration of the CB1 antagonist (Table 1) are expressed as percentage of increase with respect to the activity of quinpirole and as percentage of decrease with respect to the activity of a very strong dose of levodopa.
The combination of a CB1 receptor antagonist and of a D2 dopaminergic agonist (quinpirole) is produced in the following way: […]

In assay [2] the test system is Reserpine-treated rats. The experiment in a line: Reserpine-treated rat, dyskinesia model: locomotor activity, CB1 antagonist ip combined with strong dose of levodopa. The note with it: CB1 antagonist 1 mg/kg i.p.; levodopa 120 mg/kg + benserazide 50 mg/kg i.p.; locomotion recorded 2.5 hours. Here is the method:
as §1, §2, §3
The combination of the CB1 receptor antagonist and of a strong dose of levodopa (dyskinesia model) is produced in the following way: […]

Assay [3] concerns Reserpine-treated rats. Kind of assay: Reserpine-induced akinesia in the rat: locomotor activity, CB1 antagonist po combined with quinpirole. The note with it: locomotion recorded 1 hour. Here is the method:
as §1, §2
(§4) The studies by the oral route are carried out in a hydrophobic formulation solvent Labrafil/Labrasol (40/60%, w/w). These products are administered (in a volume of 1 ml/kg) one hour before the dopaminergic agonist. The recording of the locomotor activity begins 5 min after the intraperitoneal injection of the dopaminergic agonist and lasts 1 hour. The D1 dopaminergic agonist is 0.3 mg/kg C1-APB. The D2 dopaminergic agonist is 0.1 mg/kg quinpirole.
(§5) The results for the po administration of the CB1 antagonist at three different doses (1, 3 and 10 mg/kg/po) (Table 2) are expressed as percentage of increase with respect to the activity of quinpirole and a percentage of decrease with respect to the activity of a strong dose of C1-APB (SKF 82958).

For assay [4], the system named is Reserpine-treated rats. Kind of assay: Reserpine-treated rat: locomotor activity, CB1 antagonist po combined with strong dose of C1-APB (SKF 82958). The note with it: locomotion recorded 1 hour. The procedure:
as §1, §2, §4, §5

With `Cc1c(C(=O)NN2CCCCC2)nn(-c2ccc(Cl)cc2Cl)c1-c1ccc(Cl)cc1.Cl` [SR141716A, N-(piperidin-1-yl)-5-(4-chlorophenyl)-1-(2,4-dichlorophenyl)-4-methyl-1H-pyrazole-3-carboxamide hydrochloride], the “Combination with quinpirole (62.5 μg/kg ip): percentage of increase with respect to the activity of quinpirole” value with Reserpine-treated rats [1] is “+116%***”. Moreover, in the assay with Reserpine-treated rats [2], the “Combination with levodopa (120 mg/kg ip): percentage of decrease with respect to the activity of a very strong dose of levodopa” value was −61%*. For the same compound, the “Combination with quinpirole (0.1 mg/kg ip): percentage of increase with respect to the activity of quinpirole” value in the assay with Reserpine-treated rats [3] (CB1 antagonist 1 mg/kg po one hour before quinpirole) is “+57%* NS”; in the assay on Reserpine-treated rats [3] (CB1 antagonist 3 mg/kg po one hour before quinpirole), “+121%**”; in the assay on Reserpine-treated rats [3] (CB1 antagonist 10 mg/kg po one hour before quinpirole), “+87%**”. The “Combination with C1-APB (0.3 mg/kg ip): percentage of decrease with respect to the activity of a strong dose of C1-APB” value in the assay with Reserpine-treated rats [4] (CB1 antagonist 1 mg/kg po one hour before C1-APB) is listed as −32% NS; in the assay with Reserpine-treated rats [4] (CB1 antagonist 3 mg/kg po one hour before C1-APB), −58%*; with Reserpine-treated rats [4] (CB1 antagonist 10 mg/kg po one hour before C1-APB), −82%**.
